Reference: patent EP0770606A1, “Cis-epoxide derivate useful as irreversible HIV protease inhibitor and process for its preparation” (LG Chemical Limited, priority 1995, dated 1997)

How the values were obtained:
[1] = test system: HIV-1; assay: Anti-viral activity: inhibition of HIV proliferation in H9 (reverse transcriptase activity) and Sup T1 (syncytium formation) cell lines; assay type: cell-based; conditions: concentration at which the proliferation of HIV is inhibited by 50%, H9 or Sup T1 cells, cell line not stated
Protocol: 1 x 10^5 cells of each of H9(ATCC HTB 176) and Sup T1 cell lines were added to the wells of a 24-well microtiter plate and the compound of the present invention was added thereto in various concentrations. 200 TCID50(200-fold of 50% tissue culture infection dose) of HIV-1 inoculum and rpmi-1640 medium(Sigma Chemical Co., U.S.A) were added successively to the wells and the plate was incubated at 37°C. In case of Sup T1, the number of syncytium formed was investigated after 3 to 9 days.
In the case of H9, three-quarters(3/4) of the culture medium was refreshed every 3 days. After 9 days, 6ml of the culture fluid was centrifuged at 1000rpm for 10 minutes. To 5ml of the resulting supernatant were added 2.5ml of 30% polyethylene glycol(PEG, M.W. 6000-8000) and 0.4M NaCl. The resulting solution was allowed to stand at 0°C overnight to precipitate virus particles. The solution was centrifuged at 2000rpm for 45 minutes, the supernatant was discarded therefrom and the precipitate was diluted with 20ml of a reverse transcriptase suspension buffer(50mM tris-HCl(Sigma), pH 7.5, 1mM dithiothreitol, 20% glycerol, 0.25M KCl and 0.25% Triton X-100). The resulting suspension was stored in an Effendorf tube at -70°C until use. A cycle of freezing the above virus suspension for 2 minutes in dry ice and thawing it at 37°C for 2 minutes was repeated three times and the resulting suspension was centrifuged at 4°C. The resulting supernatant was used in carrying out the reverse transcriptase assay.
10µl of the above virus suspension was added to a solution prepared by mixing: 10µl of buffer solution(250mM tris-HCl, pH 7.5, 37.5mM MgCl2, 0.25% triton X-100), 1.2µl of 200mM dithiothreitol, 5µl of 10µM oligo(dT)-poly(A)(Boeringer Mannheim, 12-18 oligomer), 1µl(1µCi) of ^3H-TTP(thymidinetriphosphate) and 23.6µl of water; and the resulting mixture was kept at 37°C. […] The amount of radioactivity was counted using a liquid scintillation counter.

[2] = Cytotoxicity by trypan blue dye exclusion; assay type: cell-based; conditions: human, h9 or sup t1 cells; concentration at which 50% of the cells die; 0.1µM to 100µM tested; cell line not stated; read-out: CT50 (the source's name)
Protocol: (§1) To determine the cytotoxicity of the compound of the present invention, 0.1µM to 100µM of the compound was added to H9 cell or Sup T1 cell and the mixture was cultured on a rpmi-1640 medium at 37°C. The medium was refreshed every 3 days and the extent of cell proliferation was observed using Hemacytometer according to the trypan blue dye exclusion technique which is well known in the art. CT50(i.e., the concentration at which 50% of the cells die) was determined.

[3] = test system: H9 cell or Sup T1 cell; assay: Cytotoxicity by trypan blue dye exclusion; assay type: cell-based; conditions: human, h9 or sup t1 cells
Protocol: as §1

[4] = molecular target: T1, HIV-1 protease (Human immunodeficiency virus type 1 group M subtype B, UniProt P04585); assay type: biochemical; conditions: KINSIM/FITSIM analysis
T1 construct: adding 2.6nM of HIV-1 protease to the preincubation solution
Protocol: To a buffer solution comprising 50mM sodium acetate, pH 5.5, 1mM dithiothreitol(DTT), 1mM ethylenediaminetetraacetate (EDTA), 0.75M ammonium sulfate and 0.1% NP40(NONIDET P-40; Sigma Chemical Co., U.S.A.), was added a pre-determined amount of the compound obtained in Example to prepare a preincubation solution having a known concentration of the compound. The inhibition reaction was initiated by adding 2.6nM of HIV-1 protease to the preincubation solution. 10µl samples of the reaction solution were taken at a given time interval and each sample was added to 80µl of assay solution containing 100µM of reaction substrate in the same buffer solution as above to assay for the residual enzyme activity. […] The reaction rate was determined by subjecting both the substrate before the reaction and the product after the reaction to HPLC separation and then measuring the amount of the product relative to the substrate, using the strong absorbance of (p-NO2)-Phe at 280nm. The decrease in the enzyme activity with time was measured for each sample and the natural logarithmic values(ln) of the data points in a given experiment were plotted against time to obtain a linear correlation line. kobs was then calculated from the slope of the line.
The inhibition constant was calculated according to the following equation: (1)/(kobs)=(1)/(kina)+(KI)/(kina)(1)/([I]) [formula] wherein: kobs is a rate constant representing the rate of decrease in enzyme activity in the presence of the inhibitor, kina is a rate constant representing the rate of the irreversible covalent bond formation between the enzyme and the inhibitor (in Michaelis-Menten complex), KI is an inhibition constant represented by the equilibrium constant for the formation of the Michaelis-Menten complex from an enzyme and an inhibitor, and [I] designates the inhibitor concentration.
The inhibition constants KI, the rate constant kina and the second order rate constant kina/KI were tabulated by inputting the value of [E]/([E]+[EI]+[EI'] [formula] ) into KINSIM/FITSIM program.

For CC(C)c1nc(CN(C)C(=O)N[C@H](C(=O)N[C@@H](Cc2ccccc2)C[C@H](O)[C@H](Cc2ccccc2)NC(=O)OCc2cncs2)C(C)C)cs1 [ABI-538], the IC50 [1] was 53 nM.
Work on CC(C)(C)NC(=O)[C@@H]1CN(Cc2cccnc2)CCN1C[C@@H](O)C[C@@H](Cc1ccccc1)C(=O)N[C@H]1c2ccccc2C[C@H]1O [MK-639, reference compound] yielded a CC50 [2] of 10000 nM and an IC50 ([1]; Human immunodeficiency virus 1) of 10 nM.
For “[(5S)-[(N-isopropyloxycarbonyl)-β-methanesulfonyl-L-valinyl]amino]-(4R, 3S)-epoxy-6-phenyl-1-hexanoyl]-[(2S)-(1-phenyl-3-methyl-1-oxo)butylamino]amide [compound of the present invention]”, the CC50 [3] was 10000 nM, the IC50 [1] was 15 nM and the Ki ([4]; inhibition constant, 2.6nM HIV-1 protease, pH 5.5) was 12 nM. The kina ([4]; rate constant of irreversible covalent bond formation between enzyme and inhibitor) was 3.2 min⁻¹ and the kina/KI ([4]; second order rate constant) was 2.7 x 10^7 min^-1M^-1.
